Results: patent US20030045580A1, “Ibuprofen containing active agent preparation” (priority 2000, published 2003)

Test: Hardness (radial breaking force) of 200 mg, 9 mm compacts from active ingredient preparation vs physical mixture
Type: physicochemical
Details: 200 mg compacts, diameter 9 mm
Procedure: The hardness of the round compacts means the radial breaking force.
Various compositions of the novel active ingredient preparation were compressed under various pressures using a type EKO press supplied by Korsch, Berlin, to give 200 mg compacts with a diameter of 9 mm. For comparison therewith, the physical mixtures (PM) of the same composition were compressed under analogous conditions, and the hardnesses of the produced compacts were compared. Physical mixtures mean the dry mixture of ibuprofen with the particular binder.
In contrast to the purely physical mixtures, the novel ibuprofen-containing active ingredient compositions result, even with low compressive forces, in compacts with hardnesses which are distinctly above the hardnesses of 25 N which are adequate for tablets.

SMILES: CC(C)Cc1ccc(C(C)C(=O)O)cc1 (stereo not drawn) [0% (pure), 2-(4-isobutylphenyl)propionic acid]
- Hardness with a compressive force of 4.7 to 5.3 kN (compressive force 4.7 to 5.3 kN): 11.0 N
- Hardness with a compressive force of 9.7 to 10.9 kN (compressive force 9.7 to 10.9 kN): 10.8 N
- Hardness with a compressive force of 20.1 to 21.1 kN (compressive force 20.1 to 21.1 kN): 20.1 N
